This is an account of results in patent US20150233903A1, “SOLID PHASE GLYCAN AND GLYCOPEPTIDE ANALYSIS AND MICROFLUIDIC CHIP FOR GLYCOMIC EXTRACTION, ANALYSIS AND METHODS FOR USING SAME” (THE JOHNS HOPKINS UNIVERSITY, priority 2012, published 2015).

SMILES strings stand for the structures.

For the assay, the system named is pancreatic cancer cell line SW1990. Put plainly: Relative quantitation of sialylated N-glycans from SW1990 cells with and without 1,3,4-O-Bu3ManNAc treatment (light/heavy p-toluidine labeling, MALDI-MS). The format is cell-based. As to conditions: for H/L: SW1990 cells treated (heavy) vs untreated (light), glycan Core+Na. How it is done: Proteins were immobilized to amino link beads via reductive amination. Briefly, AminoLink resin (200 μL) was loaded onto snap-cap spin-column, centrifuged at 2000 g for 1 minute. Resin was washed with 450 μL of pH 10 buffer (Sodium citrate 100 mM and sodium carbonate 50 mM) followed by centrifugation. The washing step was repeated twice. Proteins dissolved in pH 10 buffer were loaded onto prepared AminoLink resin in snap-cap spin-column in 1 mg/200 μL beads ratio. The volume was adjusted to 450 μL using pH 10 buffer. Sample-resin mixture was incubated at room temperature overnight. The mixture was centrifuged at 2000 g to remove any unbound protein. Resin was rinsed by 1×PBS buffer (Sigma-Aldrich; pH 7.4; 450 μL) three times. PBS buffer in the presence of 50 mM sodium cyanoborohydride (450 μL) was added to resin (spin-column capped during each incubation step). After a four hour incubation, supernatant was removed via centrifugation (2000 g) and 450 μL of 1 M Tris-HCl (pH 7.6) in the presence of 50 mM sodium cyanoborohydride was added to block un-reacted aldehyde sites of resin. The blocking process was terminated after 1 hour, followed by washing of resin with PBS twice, 1M […] twice and water three times.
Proteins conjugated on solid support were mixed with 450 μL of 1M p-toluidine and 40 μL of EDC at pH 4.5 adjusted using HCl. After incubation for 4 hours, beads were washed twice with 500 μL of 1M NaCl and water followed by 50 mM ammonium bicarbonate, three times for each solution, and treated with 100 units of PNGase F in 0.3 mL of 50 mM ammonium bicarbonate overnight at 37° C. to release N-glycans from proteins. Nglycans released in the supernatant were subsequently collected. The N-glycans released from glycoproteins were further purified and concentrated over Carbograph columns (Extract-Clean SPE Carbo 150 mg; Grace Division Discovery Science; Deerfield, Ill.) and eluted in 0.1% TFA 50% acetonitrile/water following the manufacturer's instruction (Grace Davison Discovery Sciences, Milwaukee, Wis.). Glycans were then dried in Savant Speed-Vac (Thermo Scientific, Asheville, N.C.).
Glycans were resuspended in 20 μL of water. Sample 1.5 μL was mixed 1.5 μL of matrix on a 384-well goals MALDI plate (Hudson Surface Technology, Fort Lee, N.J.). DHB matrix solution was prepared by dissolving 100 mg of DHB in 1 mL of a 1:1 solution of water and ACN followed by addition of 40 μL of dimethylaniline. Glycans were analyzed by Shimadzu AXIMA Resonance Mass Spectrometer (Shimadzu, Columbia, Md.) in positive mode.
It has been well established that the extent of glycan sialylation depends on sialyltransferases, the biosynthetic enzymes responsible for adding a sialic acid to an underlying galactose or GalNAc residue. […] To fill this void, in the present invention we profiled N-glycans in SW1990 treated with 1,3,4-O-Bu3ManNAc as previously described. Protein extract from 1,3,4-O-Bu3ManNAc treated SW1990 cells and untreated control cells were conjugated to solid support and labeled with isotopic p-toluidine as described above. The mass spectrometric analysis of labeled glycans identified 87 N-glycans based on accurate mass (data not shown). Sialic acid compositional assignment was determined based on the differences of heavy and light labeled glycans. Twenty one heavy and light glycan peaks were identified with a mass shift of 7 or a multiple of 7, confirming that the presence of 21 sialylated glycans (FIGS. 13A and 13B). Qualitative analysis of N-glycans from cells with and without ManNAc treatment using isotopic labeling of sialylated N-glycans with 1:1 combined samples identified and quantified 14 sialylated glycans (Table 5). Seven other sialylated Nglycans could not be quantified due to low signal to noise ratio when the two samples were combined for MS analysis.

For the compound `CCCC(=O)OC1O[C@H](CO)[C@@H](OC(=O)CCC)[C@H](OC(=O)CCC)[C@@H]1NC(C)=O` (stereo partly shown) [1,3,4-O—Bu3ManNAc, 1,3,4-O-Bu3ManNAc], the H/L is 1.29 (Fucose 0, HexNAc 2, Hexose 2, Sialic Acid 1, [M+Na] 2043.89); 1.09 (Fucose 1, HexNAc 2, Hexose 2, Sialic Acid 1, [M+Na] 2189.95); 1.02 (Fucose 1, HexNAc 2, Hexose 2, Sialic Acid 2, [M+Na] 2570.21); 1.95 (Fucose 1, HexNAc 3, Hexose 2, Sialic Acid 1, [M+Na] 2393.04); 1.70 (Fucose 1, HexNAc 3, Hexose 2, Sialic Acid 2, [M+Na] 2773.31); 1.31 (Fucose 1, HexNAc 3, Hexose 3, Sialic Acid 1, [M+Na] 2555.10). Also, the H/L by setting is: (Fucose 1, HexNAc 3, Hexose 3, Sialic Acid 2, [M+Na] 2935.36) 0.98; (Fucose 1, HexNAc 4, Hexose 3, Sialic Acid 1, [M+Na] 2758.19) 1.66; (Fucose 2, HexNAc 2, Hexose 2, Sialic Acid 1, [M+Na] 2336.01) 1.10; (Fucose 2, HexNAc 3, Hexose 2, Sialic Acid 1, [M+Na] 2539.10) 1.31; (Fucose 2, HexNAc 3, Hexose 3, Sialic Acid 1, [M+Na] 2701.15) 1.03; (Fucose 2, HexNAc 4, Hexose 3, Sialic Acid 1, [M+Na] 2904.25) 2.04. Also, the H/L is 1.00 (Fucose 3, HexNAc 3, Hexose 2, Sialic Acid 1, [M+Na] 2585.15) and 1.39 (Fucose 3, HexNAc 4, Hexose 3, Sialic Acid 1, [M+Na] 3050.31). For the same compound, the “decrease in sialylated N-glycans when cells were treated” value (SW1990 cells, treated vs untreated) was “no significant decrease”. In addition, the “number of sialylated N-glycan compositions with a significant increase in abundance” value (SW1990 cells, treated vs untreated, 14 sialylated glycans quantified) is “six”.
